Reference: ChEMBL document CHEMBL3217702, “Oxadiazole isomers: all bioisosteres are not created equal” (Medchemcomm, 2012)
Values after ≈ are worked out from the molar mass of the structure shown.

Key:
[1] = Intrinsic clearance in rat hepatocytes measured per 10^6 cells; type: ADME, cell-based, Hepatocyte; conditions: read-out: CLH
[2] = Hexadecane-phosphate buffer distribution coefficient, log P of the compound at pH 7.4; type: physicochemical
[3] = Permeability from basolateral to apical side in human Caco2 cells; type: ADME, cell-based; conditions: Caco-2, read-out: permeability
[4] = Hydrolytic stability of the compound at 10 uM at pH 8 at 65 degC after 18 hrs in presence of 2-methoxyethanol; type: physicochemical; conditions: buffer, pH 8, 18 h
[5] = Intrinsic clearance in human microsomes; type: ADME, Microsome
[6] = Hydrolytic stability of the compound at 10 uM at pH 4 at 65 degC after 18 hrs in presence of 2-methoxyethanol; type: physicochemical; conditions: buffer, pH 4, 18 h
[7] = Hydrolytic stability of the compound at 10 uM at pH 6 at 65 degC after 18 hrs in presence of 2-methoxyethanol; type: physicochemical; conditions: buffer, pH 6, 18 h
[8] = Permeability from apical to basolateral side in human Caco2 cells; type: ADME, cell-based; conditions: Caco-2, read-out: permeability
[9] = Half life at 10 uM at pH 8 at 25 degC; type: physicochemical; conditions: buffer
[10] = Half life at 10 uM at pH 4 at 65 degC; type: physicochemical; conditions: buffer
[11] = Half life at 10 uM at pH 8 at 65 degC; type: physicochemical; conditions: buffer
[12] = Half life at 10 uM at pH 6 at 25 degC; type: physicochemical; conditions: buffer
[13] = Half life at 10 uM at pH 4 at 25 degC; type: physicochemical; conditions: buffer
[14] = Half life at 10 uM at pH 6 at 65 degC; type: physicochemical; conditions: buffer
physchem [15] = conditions: octanol/aqueous phosphate buffer, pH 7.4
Description: Octanol-aqueous phosphate buffer distribution coefficient, log P of the compound at pH 7.4

[16] = Fraction unbound in rat plasma; type: ADME, cell-free
physchem [17] = conditions: aqueous phosphate buffer, pH 7.4
Description: Solubility of the compound in aqueous phosphate buffer at pH 7.4 at 25 degC after 24 hrs

[18] = target: Voltage-gated inwardly rectifying potassium channel KCNH2 (Homo sapiens, UniProt Q12809); assay: Inhibition of human ERG
Sequence of Voltage-gated inwardly rectifying potassium channel KCNH2 (Q12809 whole entry): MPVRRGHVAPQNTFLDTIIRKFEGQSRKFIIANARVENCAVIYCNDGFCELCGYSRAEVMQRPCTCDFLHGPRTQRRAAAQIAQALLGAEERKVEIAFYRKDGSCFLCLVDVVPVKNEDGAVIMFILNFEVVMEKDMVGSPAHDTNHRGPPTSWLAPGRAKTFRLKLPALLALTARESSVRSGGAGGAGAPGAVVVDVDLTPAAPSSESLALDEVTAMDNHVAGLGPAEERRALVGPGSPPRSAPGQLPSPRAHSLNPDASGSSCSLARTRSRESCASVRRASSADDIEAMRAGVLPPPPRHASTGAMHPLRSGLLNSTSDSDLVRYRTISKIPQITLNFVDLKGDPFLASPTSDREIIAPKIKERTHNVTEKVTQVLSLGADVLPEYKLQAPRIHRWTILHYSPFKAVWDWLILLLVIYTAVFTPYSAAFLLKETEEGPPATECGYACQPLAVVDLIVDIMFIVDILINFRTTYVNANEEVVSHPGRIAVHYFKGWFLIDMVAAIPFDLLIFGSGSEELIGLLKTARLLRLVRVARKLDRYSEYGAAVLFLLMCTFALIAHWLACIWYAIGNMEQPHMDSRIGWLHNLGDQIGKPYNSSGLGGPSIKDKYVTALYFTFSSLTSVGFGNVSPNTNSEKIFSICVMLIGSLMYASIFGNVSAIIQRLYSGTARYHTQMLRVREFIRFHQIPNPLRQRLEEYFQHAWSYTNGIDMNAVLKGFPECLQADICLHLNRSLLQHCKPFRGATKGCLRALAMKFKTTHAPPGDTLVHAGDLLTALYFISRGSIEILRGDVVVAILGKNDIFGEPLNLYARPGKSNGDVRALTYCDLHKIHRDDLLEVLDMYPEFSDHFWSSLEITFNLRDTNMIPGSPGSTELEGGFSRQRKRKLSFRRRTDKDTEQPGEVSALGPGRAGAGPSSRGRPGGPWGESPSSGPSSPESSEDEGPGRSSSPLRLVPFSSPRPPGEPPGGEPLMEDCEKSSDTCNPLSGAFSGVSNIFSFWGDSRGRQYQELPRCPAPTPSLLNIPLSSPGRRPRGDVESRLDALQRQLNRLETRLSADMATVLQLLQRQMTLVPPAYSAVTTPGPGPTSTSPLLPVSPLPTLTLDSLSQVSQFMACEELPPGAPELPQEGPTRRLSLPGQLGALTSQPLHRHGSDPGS

[19] = Fraction unbound in human plasma; type: ADME, cell-free
[20] = Fraction unbound in mouse plasma; type: ADME, cell-free

| Compound | hepatocyte CLint [1] [µL/min/1e6 cells] | logP [2] | Papp B→A [3] [×10⁻⁶ cm/s] | Stability [4] | microsomal CLint [5] [µL/min/mg] | Stability [6] | Stability [7] | Papp A→B [8] [×10⁻⁶ cm/s] | half-life at 10 µM [9] [h] | half-life at 10 µM [10] [h] | half-life at 10 µM [11] [h] | half-life at 10 µM [12] [h] | half-life at 10 µM [13] [h] | half-life at 10 µM [14] [h] | logD (physchem [15]) | fraction unbound [16] | solubility at 24 h (physchem [17]) [µM] | fraction unbound [19] | fraction unbound [20] | IC50 [18] [µM] |
| --- | --- | --- | --- | --- | --- | --- | --- | --- | --- | --- | --- | --- | --- | --- | --- | --- | --- | --- | --- | --- |
| CC(C)c1nc(N2CCN(c3ncc(OCc4ccncc4C#N)cn3)[C@H](C)C2)no1 | 70 | 1.3 | 6 | Stable | 48 | Stable | Stable | 15 | – | – | – | – | – | – | – | – | – | – | – | – |
| C[C@@H]1CN(c2noc(C(F)F)n2)CCN1c1ncc(OCc2ccncc2C#N)cn1 | – | 1.4 | – | Stable | – | Stable | Stable | – | – | – | – | – | – | – | 2.8 | – | – | – | – | – |
| CC(C)c1noc(N2CCN(c3ncc(OCc4ccncc4C#N)cn3)[C@H](C)C2)n1 | 72 | – | – | Stable | 55 | Stable | Stable | – | – | – | – | – | – | – | – | – | – | – | – | – |
| CC(C)c1nnc(N2CCN(c3ncc(OCc4ccncc4C#N)cn3)[C@H](C)C2)o1 | 63 | -0.5 | 13 | Stable | 47 | Stable | Stable | 16 | – | – | – | – | – | – | 2.6 | 0.087 | 150 (≈ 63.1 µg/mL) | 0.071 | 0.131 | > 28 |

More lines, main results first:

| hepatocyte CLint [1] [µL/min/1e6 cells] | logP [2] | Papp B→A [3] [×10⁻⁶ cm/s] | Stability [4] | microsomal CLint [5] [µL/min/mg] | Stability [6] | Stability [7] | Papp A→B [8] [×10⁻⁶ cm/s] | half-life at 10 µM [9] [h] | half-life at 10 µM [10] [h] | half-life at 10 µM [11] [h] | half-life at 10 µM [12] [h] | half-life at 10 µM [13] [h] | half-life at 10 µM [14] [h] | logD (physchem [15]) | fraction unbound [16] | solubility at 24 h (physchem [17]) [µM] | fraction unbound [19] | fraction unbound [20] | Compound | IC50 [18] [µM] |
| --- | --- | --- | --- | --- | --- | --- | --- | --- | --- | --- | --- | --- | --- | --- | --- | --- | --- | --- | --- | --- |
| 42 | 2.9 | 6 | Unstable | 28 | Unstable | Unstable | 23 | 127 | 6.96 | 2.88 | 214 | 137 | 8.64 | – | – | – | – | – | C[C@@H]1CN(c2noc(C(F)(F)F)n2)CCN1c1ncc(OCc2ccncc2C#N)cn1 | – |
| 52 | 1.4 | 6 | Stable | 40 | Stable | Stable | 13 | – | – | – | – | – | – | – | – | – | – | – | C[C@@H]1CN(c2nc(C(F)(F)F)no2)CCN1c1ncc(OCc2ccncc2C#N)cn1 | – |
| 53 | 0.5 | 21 | Stable | 34 | Stable | Stable | 18 | – | – | – | – | – | – | 2.7 | – | – | – | – | C[C@@H]1CN(c2nnc(C(F)(F)F)o2)CCN1c1ncc(OCc2ccncc2C#N)cn1 | – |
